In one assay the target is T1, GST-hMDM2 (aa1-188) (Homo sapiens, UniProt Q00987).
T1 construct: The amino acid residues 1-188 of human MDM2 were expressed as GST-hMDM2 fusion protein; made in house; host or cells: E. coli
Briefly: Homogeneous time resolved fluorometry (HTRF assay), hMDM2/p53 interaction. The class given is binding. As to conditions: HTRF analysis; GST-hMDM2 (aa1-188) / biotinylated-p53 (aa1-83). As for the experimental part: Residues 1-83 of human p53 were expressed as avitag <TM>-trxa-6×his fusion protein (biotinlabelled p53) in E. coli. Each protein was separated from cell homogenate by affinity chromatography.
Specifically, 10 μL GST-hMDM2 was incubated with 10 uL diluted compound in 10% DMSO for 20 minutes at room temperature. 20 μL biotinlabelled-p53 was added to the mixture of GST-hMDM2 and then incubated at room temperature for 60 min. A 10 μL detection buffer consisting of SA-XLent, anti-GST cavernous compound antibody and KF was added to the reaction solution consisting of GST-hMDM2, biotinlabelled-p53 and the compound and was placed at room temperature to achieve equilibrium and maintained for more than 4 h. The final concentration of DMSO in the reaction solution was 2%. Time resolved fluorescence were measured on a microplate multi label reader. The inhibition percentage was calculated relative to nutlin-3.
On the technique in general: Time-resolved FRET reads energy transfer from a long-lived donor to a nearby acceptor.

In assay [1] the test system is p21 transcripts in SJSA-1 cells. The experiment in a line: p21 assay (QRT-PCR of p21 transcripts in SJSA-1 cells). The class given is cell-based, human. As to conditions: Homo sapiens, SJSA-1, 7 h, cell assay (SJSA-1 cell); p21 induction, 7 hours incubation. The source says:
Inhibition of the interaction between hMDM2 and p53 results in the activation of the p53 pathway via the stabilization and accumulation of p53. P53 activates the transcription of many genes, one of which is p21<WAFT/CIP1>. To evaluate the potency of hMDM2 inhibitors, quantitative reverse transcription polymerase chain reaction (QRT PCR) was used to measure the level of p21 transcripts of compound related cells relative to that of control cells treated with dimethyl sulfoxide (DMSO).
In the first day, SJSA-1 cells were inoculated into 100 μL growth medium (RPMI1640; 10 mM HEPES; 1 mM sodium pyruvate; 1× penicillin streptomycin glutamine (PSQ) and 10% FBS, all reagents were obtained from Invitrogen) at a density of 3×10^4 cells in 96-well cell culture plate. The cells were cultured overnight at 37° C. and 5% CO2 atmosphere.
In the second day, hMDM2 inhibitor was gradient diluted in DMSO(Sigma-Aldrich; St. Louis, Mo.). 5 μl of each compound dilution were added into 245 μl filtered assay medium (RPMI1640, 10% FBS, 10 mM HEPES, 1 mM sodium pyruvate and 1×PSQ). Or the assay was conducted with the presence of 10% human serum or 10% mouse serum, or without serum. Growth medium was removed from inoculated SJSA-1 cell culture plate and replaced by 100 μL assay medium for each well. Then 100 μL culture medium containing diluted inhibitor was added into each well to a final volume 200 μL. The final concentration of the compound was in the range of 0.049 μm-50 μm by dose titration with DMSO as control. The cells were incubated at 37° C. and 5% CO2 for 7 hours with the presence of inhibitor. When incubation was completed, growth medium was removed from cells and the plate was stored at −80° C.
In the third day, giagen BioRobot Universal workstation was used to purify total RNA from SJSA-1 cells treated with inhibitor and DMSO respectively. The purification procedure herein was according to RNeasy96BioRobot8000 test kit provided by Qiagen, Valencia, Calif.
To measure the level of existing p21 transcripts, QRT-PCR was introduced. The levels of p21, housekeeping genes and glyceraldehyde 3-phosphate dehydrogenase (GAPDH) were determined by the total RNA from each inhibitor- or DMSO-treated well by duplicated test. The QRT-PCR reaction was performed on the Applied Biosystems prism 7900ht instrument using the relative quantitative (ΔΔ Ct) method according to the following cycle conditions: 48° C. for 30 minutes, then 95° C. for 10 minutes, and then was 40 cycles consisting of 95° C. for 15 seconds and 60° C. for 1 minute. The data were analyzed by using Applied Biosystems SDS2.2 software, with GAPDH as inner control and DMSO treated samples as calibrators. SDS2.2 software calculated the relative quantification (RQ) or increased fold of p21 level relative to DMSO control for each treated sample. The maximum (100%) p21 induction fold was defined by the maximum value of the fitting curve of the reference compound. The p21 induction fold of each inhibitor dose tested was converted to a value representing the percentage of the maximum value. XLFit software (ID business solutions, Alameda, Calif.) was used to make dose-response curve to calculate the IC50 transit value of each inhibitor tested.

A word on the IC50: it is the midpoint of a concentration-inhibition curve. Low values mean greater potency in that assay, high ones weaker potency in that assay.

T1 sequence (Q00987 1-188): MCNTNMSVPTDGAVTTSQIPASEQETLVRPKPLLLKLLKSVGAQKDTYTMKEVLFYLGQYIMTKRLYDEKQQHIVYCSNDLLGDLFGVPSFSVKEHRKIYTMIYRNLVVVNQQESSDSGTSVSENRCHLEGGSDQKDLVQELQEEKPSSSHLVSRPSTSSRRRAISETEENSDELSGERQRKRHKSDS

As to `CC(C)[C@@H](CS(=N)(=O)C(C)C)N1C(=O)[C@@](C)(CC(=O)NS(C)(=O)=O)C[C@H](c2cccc(Cl)c2)[C@H]1c1ccc(Cl)cc1` (some centres unmarked) [Compound 018], the IC50 was 10 to 100 nM against GST-hMDM2 (aa1-188) and 1000 to 10000 nM in assay [1].

The values are drawn from patent publication US11299460B2, “MDM2 inhibitor, preparation method therefor, pharmaceutical composition thereof and use thereof” (SHANGHAI LONGWOOD BIOPHARMACEUTICALS CO., LTD., priority 2018, dated 2022).
